± gives the standard deviation of the averaged measurements.
System: HeLa
Assay: cell viability (CellTiter-Glo) relative to median of lowest-dilution wells of all drugs (fraction); higher = more viable cells
Procedure: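 HeLa control and CRISPR DDX11 knockout cells were seeded in 384-well plates and incubated for 72 h with each of 64 […] drugs at six concentrations. Viability was read with CellTiter-Glo and normalised to the median of the lowest (6th) dilution wells of all drugs. Two biological replicates (BR1, BR2) are averaged; the concentration unit is not stated.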

[1] = drug concentration (unit not stated): 0.04, genotype: DDX11 knockout
[2] = drug concentration (unit not stated): 0.04, genotype: control (DDX11 wild type)
[3] = drug concentration (unit not stated): 0.12, genotype: DDX11 knockout
[4] = drug concentration (unit not stated): 0.12, genotype: control (DDX11 wild type)
[5] = drug concentration (unit not stated): 0.37, genotype: DDX11 knockout
[6] = drug concentration (unit not stated): 0.37, genotype: control (DDX11 wild type)
[7] = drug concentration (unit not stated): 1.11, genotype: DDX11 knockout
[8] = drug concentration (unit not stated): 1.11, genotype: control (DDX11 wild type)
[9] = drug concentration (unit not stated): 3.33, genotype: DDX11 knockout
[10] = drug concentration (unit not stated): 3.33, genotype: control (DDX11 wild type)
[11] = drug concentration (unit not stated): 10, genotype: DDX11 knockout
[12] = drug concentration (unit not stated): 10, genotype: control (DDX11 wild type)
[13] = drug concentration (unit not stated): 0.01, genotype: DDX11 knockout
[14] = drug concentration (unit not stated): 0.01, genotype: control (DDX11 wild type)

SMILES | cell viability [1] | cell viability [2] | cell viability [3] | cell viability [4] | cell viability [5] | cell viability [6] | cell viability [7] | cell viability [8] | cell viability [9] | cell viability [10] | cell viability [11] | cell viability [12] | cell viability [13] | cell viability [14]
C[C@@H]1COCCN1c1cc(C2([S@](C)(=N)=O)CC2)nc(-c2cc[nH]c3nccc2-3)n1 [AZD6738] | 1.04 ± 0.026 | 1.04 ± 0.022 | 1.03 ± 0.046 | 1.03 ± 0.019 | 0.992 ± 0.045 | 0.971 ± 0.022 | 0.862 ± 0.0099 | 0.957 ± 0.13 | 0.648 ± 0.036 | 0.913 ± 0.29 | 0.366 ± 0.094 | 0.55 ± 0.24 | – | –
NC(=O)Nc1cc(-c2cccc(F)c2)sc1C(=O)N[C@H]1CCCNC1 [AZD7762] | 1.011 ± 0.0048 | 1.04 ± 0.043 | 0.992 ± 0.051 | 0.959 ± 0.023 | 0.819 ± 0.055 | 0.896 ± 0.16 | 0.36 ± 0.022 | 0.647 ± 0.3 | 0.142 ± 0.014 | 0.299 ± 0.12 | – | – | 1.08 ± 0.072 | 1.02 ± 0.025
C[C@@H](Nc1cc(F)cc(F)c1)c1cc(C(=O)N(C)C)cc2c(=O)cc(N3CCOCC3)oc12 [AZD8186] | 0.961 ± 0.075 | 1.01 ± 0.036 | 0.946 ± 0.098 | 1.01 ± 0.027 | 0.887 ± 0.049 | 0.952 ± 0.076 | 0.847 ± 0.075 | 0.92 ± 0.12 | 0.764 ± 0.082 | 0.887 ± 0.17 | 0.654 ± 0.13 | 0.908 ± 0.19 | – | –
CCn1nc(C2CCN(C(=O)CCO)CC2)nc1-c1cnc(N)c(-c2nnc(C(C)(C)C)o2)n1 [AZD8835] | 1.08 ± 0.046 | 1.07 ± 0.014 | 0.987 ± 0.09 | 1.05 ± 0.027 | 0.908 ± 0.098 | 0.988 ± 0.078 | 0.876 ± 0.059 | 0.98 ± 0.12 | 0.803 ± 0.077 | 0.996 ± 0.057 | 0.785 ± 0.052 | 1.05 ± 0.03 | – | –
CN(Cc1cnc2nc(N)nc(N)c2n1)c1ccc(C(=O)N[C@@H](CCC(=O)O)C(=O)O)cc1 [Abitrexate (Methotrexate)] | 0.79 ± 0.24 | 0.723 ± 0.34 | 0.772 ± 0.21 | 0.665 ± 0.35 | 0.725 ± 0.17 | 0.606 ± 0.33 | 0.462 ± 0.08 | 0.58 ± 0.31 | – | – | – | – | 0.864 ± 0.26 | 0.969 ± 0.64
O=c1[nH]cc(F)c(=O)[nH]1 [Adrucil (Fluorouracil)] | 1 ± 0.034 | 0.976 ± 0.016 | 1.03 ± 0.046 | 1 ± 0.031 | 1.06 ± 0.046 | 1.03 ± 0.032 | 1.01 ± 0.073 | 1.05 ± 0.23 | 0.928 ± 0.26 | 1.02 ± 0.45 | 0.817 ± 0.14 | 0.945 ± 0.37 | – | –
COc1cc(Nc2ncc3c(n2)-c2ccc(Cl)cc2C(c2c(F)cccc2OC)=NC3)ccc1C(=O)O [Alisertib] | 0.996 ± 0.016 | 1.03 ± 0.1 | 0.752 ± 0.019 | 0.966 ± 0.34 | 0.7 ± 0.092 | 0.844 ± 0.23 | 0.859 ± 0.029 | 0.919 ± 0.16 | 0.781 ± 0.041 | 0.827 ± 0.12 | – | – | 1.056 ± 0.0065 | 1.044 ± 0.0066
CN1CC[C@H](c2c(O)cc(O)c3c(=O)cc(-c4ccccc4Cl)oc23)[C@H](O)C1 [Alvocidib (Flavopiridol)] | 1.11 ± 0.067 | 1.09 ± 0.031 | 0.972 ± 0.013 | 1.16 ± 0.29 | 0.106 ± 0.023 | 0.172 ± 0.022 | 0.163 ± 0.036 | 0.244 ± 0.086 | 0.0793 ± 0.033 | 0.11 ± 0.0096 | – | – | 1.03 ± 0.079 | 1.02 ± 0.067
C[C@@]1(CO)[C@H](O)CC[C@@]2(C)[C@H]1CC[C@H]1C[C@@H]3C[C@@]12CC[C@]3(O)CO [Aphidicolin] | 1.02 ± 0.036 | 1.06 ± 0.031 | 1.06 ± 0.089 | 1.08 ± 0.11 | 0.91 ± 0.027 | 1.06 ± 0.24 | 0.58 ± 0.046 | 0.79 ± 0.27 | 0.428 ± 0.045 | 0.523 ± 0.16 | 0.182 ± 0.027 | 0.23 ± 0.13 | – | –
Nc1ncn([C@@H]2O[C@H](CO)[C@@H](O)[C@H]2O)c(=O)n1 [Azacitidine] | 1.03 ± 0.04 | 1.03 ± 0.044 | 1.03 ± 0.019 | 1.04 ± 0.0078 | 1.01 ± 0.046 | 1.05 ± 0.021 | 1.0191 ± 0.00066 | 1.05 ± 0.013 | 1.05 ± 0.063 | 1.03 ± 0.028 | 0.872 ± 0.12 | 0.89 ± 0.28 | – | –
